Series [1] can be described thus: wn = mass fraction of the nth substance listed. The note with it: 304.15 K, 100 kPa, Liquid, transient hot wire.
The conditions of series [2]: 304.15 K; 100 kPa; Liquid; transient hot wire.

Each structure is given as a SMILES string. ± gives the expanded uncertainty stated by the source.

Regarding `CCCCCCCCCCCCOS(=O)(=O)[O-].[Na+]` [sodium dodecyl sulfate] + O, the thermal conductivity is 0.589 ± 0.024 W/m/K in series [1] (w1 = 0.001), 0.538 ± 0.022 W/m/K in series [1] (w1 = 0.003), 0.537 ± 0.022 W/m/K in series [1] (w1 = 0.005) and 0.499 ± 0.02 W/m/K in series [1] (w1 = 0.007).

`O` [water]: in series [2], the thermal conductivity turned out to be 0.613 ± 0.025 W/m/K.

As for `O` [water] + CCCCCCCCCCCCOS(=O)(=O)[O-].[Na+], the thermal conductivity in series [1] (w2 = 0) is on record as 0.613 ± 0.025 W/m/K.

The values are drawn from the NIST ThermoML archive (doi:10.1016/j.tca.2019.178308).
